Results: the NIST ThermoML archive (doi:10.1016/j.jct.2015.05.020)
± gives the expanded uncertainty stated by the source.

Experiments:
[1] = Molar enthalpy of transition or fusion; details: Crystal; DSC
[2] = Crystal; visual observation

In the case of `COc1cc(C=O)ccc1O` [vanillin], the “Molar enthalpy of transition or fusion” value [1] is reported as 5.92 ± 0.406 kcal/mol and the Normal melting temperature [2] is reported as 81.60 ± 1.1 °C.
